Laboratory results published in ChEMBL document CHEMBL1148292 (J Med Chem, 2004).
Where “and” joins values, the source holds several entries; their conditions need not be identical. Equal entries are not always repeated.

Legend:
[1] = target: T1, Adenosine receptor A2b (Homo sapiens, UniProt P29275); experiment: Binding affinity of compound for displacement of specific [3H]- DPCPX binding at human A2B receptors expressed in HEK293 cells; type: cell-based
T1 sequence (P29275 whole entry): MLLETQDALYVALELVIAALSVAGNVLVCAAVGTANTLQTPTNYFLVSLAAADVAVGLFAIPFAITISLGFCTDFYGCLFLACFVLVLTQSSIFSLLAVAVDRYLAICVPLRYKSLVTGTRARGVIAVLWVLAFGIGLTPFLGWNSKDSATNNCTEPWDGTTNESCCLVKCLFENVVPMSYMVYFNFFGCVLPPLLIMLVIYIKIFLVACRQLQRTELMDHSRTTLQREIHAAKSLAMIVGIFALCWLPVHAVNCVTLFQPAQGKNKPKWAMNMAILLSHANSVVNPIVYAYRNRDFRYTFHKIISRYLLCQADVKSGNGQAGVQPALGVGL

[2] = target: T2, Adenosine receptor A3 (Homo sapiens, UniProt P0DMS8); experiment: Binding affinity of compound for displacement of specific [3H]MRE3008-F20 binding at human A3 receptors expressed in CHO cells; type: cell-based
T2 sequence (P0DMS8 whole entry): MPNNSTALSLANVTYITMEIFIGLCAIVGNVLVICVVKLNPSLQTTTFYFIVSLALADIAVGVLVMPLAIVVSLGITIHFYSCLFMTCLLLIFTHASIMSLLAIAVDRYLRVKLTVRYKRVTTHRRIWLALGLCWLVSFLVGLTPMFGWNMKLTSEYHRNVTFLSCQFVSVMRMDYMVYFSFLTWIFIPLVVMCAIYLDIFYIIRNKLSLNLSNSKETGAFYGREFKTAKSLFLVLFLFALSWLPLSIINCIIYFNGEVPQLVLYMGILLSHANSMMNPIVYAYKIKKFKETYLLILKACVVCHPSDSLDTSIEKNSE

[3] = target: T3, Adenosine receptor A1 (Homo sapiens, UniProt P30542); experiment: Displacement of specific [3H]DPCPX binding at human adenosine A1 receptor expressed in CHO cells; type: cell-based
T3 sequence (P30542 whole entry): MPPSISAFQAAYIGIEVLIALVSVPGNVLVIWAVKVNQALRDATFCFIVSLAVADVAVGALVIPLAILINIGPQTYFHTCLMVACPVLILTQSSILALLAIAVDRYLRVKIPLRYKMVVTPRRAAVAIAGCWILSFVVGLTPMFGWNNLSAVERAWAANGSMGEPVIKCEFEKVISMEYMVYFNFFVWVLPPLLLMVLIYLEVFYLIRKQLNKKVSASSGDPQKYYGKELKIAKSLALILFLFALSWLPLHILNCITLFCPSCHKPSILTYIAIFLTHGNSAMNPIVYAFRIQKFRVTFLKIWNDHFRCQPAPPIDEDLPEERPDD

[4] = target: Adenosine receptor A2a (Homo sapiens, UniProt P29274); experiment: Binding affinity of compound for displacement of specific [3H]ZM-241385 binding at human adenosine A2A receptor expressed in CHO cells; type: cell-based
Sequence of Adenosine receptor A2a (P29274 whole entry): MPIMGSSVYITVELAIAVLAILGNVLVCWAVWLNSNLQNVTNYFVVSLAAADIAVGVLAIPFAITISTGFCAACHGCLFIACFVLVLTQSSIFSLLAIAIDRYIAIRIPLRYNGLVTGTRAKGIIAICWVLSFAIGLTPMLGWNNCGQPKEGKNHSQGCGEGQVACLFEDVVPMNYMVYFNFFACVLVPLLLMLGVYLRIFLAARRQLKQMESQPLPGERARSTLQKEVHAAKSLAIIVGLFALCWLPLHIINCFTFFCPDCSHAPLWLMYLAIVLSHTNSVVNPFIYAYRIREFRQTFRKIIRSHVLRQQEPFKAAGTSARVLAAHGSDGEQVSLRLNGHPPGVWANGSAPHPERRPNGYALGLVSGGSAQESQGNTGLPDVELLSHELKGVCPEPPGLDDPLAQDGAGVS

[5] = target: T1, Adenosine receptor A2b; experiment: Binding affinity of compound for displacement of [3H]DPCPX binding in HEK293 membranes expressing human A2B adenosine receptors
[6] = target: T1, Adenosine receptor A2b; experiment: Inhibitory activity against cAMP production in CHO cells transfected with human A2B adenosine receptor; type: functional, cell-based

| SMILES | Ki [1] [nM] | Ki [2] [nM] | Ki [3] [nM] | Ki [4] [nM] | Ki [5] | IC50 [6] |
| --- | --- | --- | --- | --- | --- | --- |
| CCCn1c(=O)c2nc(-c3ccc(N)cc3)[nH]c2n(CCC)c1=O | 9 | > 1000 | 65 | > 1000 | – | – |
| CC(C)Cn1c(=O)c2nc(-c3cc(OCC(=O)Nc4ccc(F)cc4)nn3C)[nH]c2n(CC(C)C)c1=O | – | > 1000 | – | > 1000 | – | – |
| Cn1nc(NC(=O)Cc2ccccc2)cc1-c1nc2c([nH]1)c(=O)n(C)c(=O)n2C | – | – | > 1000 | – | – | – |
| CCCn1c(=O)c2nc(-c3ccc(NC(=O)Nc4cccc(Cl)c4)cc3)[nH]c2n(CCC)c1=O | 110 | > 1000 | 1360 | > 1000 | – | – |
| CCCn1c(=O)c2[nH]c(-c3cc(NC(=O)Cc4cc(OC)c(OC)c(OC)c4)nn3C)nc2n(CCC)c1=O | > 1000 | > 1000 | > 1000 | > 1000 | – | – |
| CCCn1c(=O)c2[nH]c(-c3cc(NC(=O)Cc4ccc(O)cc4)nn3C)nc2n(CCC)c1=O | – | – | > 1000 | – | – | – |
| CCCn1c(=O)c2[nH]c(-c3cc(NC(=O)Cc4cccc(F)c4)nn3C)nc2n(CCC)c1=O | – | – | – | – | 50 nM | 160 nM |
| CCCn1c(=O)c2[nH]c(-c3cc(NC(=O)[C@@H](C)c4ccccc4)nn3C)nc2n(CCC)c1=O | – | – | > 1000 | – | – | – |
| CCCn1c(=O)c2[nH]c(-c3cc(OCC(=O)Nc4ccc(Cl)c(Cl)c4)nn3C)nc2n(CCC)c1=O | – | – | – | – | 16 nM | 60 nM |
| CCCn1c(=O)c2c(nc(-c3ccc(N)cc3)n2C)n(CCC)c1=O | 516 | > 1000 | > 1000 | > 1000 | – | – |
| CCCn1c(=O)c2[nH]c(-c3cc(NC(=O)Cc4ccc(F)c(F)c4)nn3C)nc2n(CCC)c1=O | 78 | – | – | – | – | – |
| CCCn1c(=O)c2[nH]c(-c3cc(NC(=O)CCC(=O)O)nn3C)nc2n(CCC)c1=O | – | – | > 1000 | – | – | – |
| CCCn1c(=O)c2[nH]c(-c3cc(OCC(=O)Nc4ccc(OC)c(OC)c4)nn3C)nc2n(CCC)c1=O | – | – | > 1000 | – | 12 nM | 46 nM |
| CCCn1c(=O)c2[nH]c(-c3cc(OCC(=O)N4CCN(c5ccccc5)CC4)nn3C)nc2n(CCC)c1=O | 12 | – | 260 | – | 12 nM and 15 nM | 70 nM and 65 nM |
| CCCn1c(=O)c2[nH]c(-c3cc(OCC(=O)Nc4ccc(C)c(C)c4)nn3C)nc2n(CCC)c1=O | – | – | – | – | 10 nM | 40 nM |
| CCCn1c(=O)c2[nH]c(-c3cc(OCC(=O)Nc4ccc(C)cc4)nn3C)nc2n(CCC)c1=O | – | – | – | – | 19 nM | 75 nM |
| CCCn1c(=O)c2[nH]c(-c3cc(N)n(C)n3)nc2n(CCC)c1=O | – | > 1000 | – | > 1000 | – | – |
| CCCn1c(=O)c2[nH]c(-c3cc(OCC(=O)N4CCN(c5ccc(F)cc5)CC4)nn3C)nc2n(CCC)c1=O | – | – | > 1000 | – | – | – |
| CCCn1c(=O)c2[nH]c(-c3cc(OCC(=O)Nc4ccc(N5CCOCC5)cc4)nn3C)nc2n(CCC)c1=O | – | – | > 1000 | – | – | – |
| CCCn1c(=O)c2[nH]c(-c3cc(NC(=O)Cc4ccc(CC(C)C)cc4)nn3C)nc2n(CCC)c1=O | – | – | > 1000 | – | – | – |
| CCCn1c(=O)c2[nH]c(-c3cc(NC(=O)Cc4ccc(OC)c(OC)c4)nn3C)nc2n(CCC)c1=O | – | – | > 1000 | > 1000 | 38 nM | – |
| CCCn1c(=O)c2[nH]c(-c3cc(NC(=O)Cc4ccc(O)c(OC)c4)nn3C)nc2n(CCC)c1=O | – | – | > 1000 | > 1000 | – | – |
| CCCn1c(=O)c2[nH]c(-c3cc(OCC(=O)Nc4ccc(C(=O)O)cc4)nn3C)nc2n(CCC)c1=O | – | – | > 1000 | – | 36 nM | 115 nM |
| CCCn1c(=O)c2[nH]c(-c3ccc(NC(=O)Cc4ccc(OC)c(OC)c4)cc3)nc2n(CCC)c1=O | 95 | > 1000 | 1730 | > 1000 | – | – |
| CCCn1c(=O)c2[nH]c(-c3cc(OCC(=O)Nc4ccc(C)cn4)nn3C)nc2n(CCC)c1=O | 1010 | > 1000 | > 1000 | > 1000 | – | – |
| CCCn1c(=O)c2[nH]c(-c3ccc(OCC(=O)Nc4ccc(I)cc4)nc3)nc2n(CCC)c1=O | – | – | > 1000 | – | 108 nM | 477 nM |
| CCCn1c(=O)c2[nH]c(-c3cc(NC(=O)Cc4cccc(OC)c4)nn3C)nc2n(CCC)c1=O | – | – | > 1000 | – | – | – |
